{"source": "patent US20080095863A1", "about": "“2-PYRROLIDONE DERIVATIVES FOR PRESERVATION OF OPHTHALMIC, OTIC AND NASAL COMPOSITIONS” (Alcon Manufacturing Ltd., priority 2006, published 2008)", "key": {"[1]": {"system": "S. aureus, P. aeruginosa, E. coli, C. albicans and A. niger", "experiment": "Compliance with USP and/or Ph. Eur. preservative efficacy standards (Table 1)", "type": "cell-based", "conditions": "for meeting European Pharmacopoeia 5.0 (Ph. Eur. B) standards as sole preservative: without any other preservative", "method": "(§1) Antimicrobial preservative effectiveness as set forth by the examples infra was determined using an organism challenge test according to the methods described in the United States Pharmacopoeia 24 (USP) for category 1A products, and in European Pharmacopoeia 5.0 (Ph. Eur.) for parenteral and ophthalmic preparations. […] The samples were then pulled at specified intervals to determine if the antimicrobial preservative system was capable of killing or inhibiting the propagation of organisms purposely introduced into the formulation. The rate or level of antimicrobial activity determines compliance with the USP and/or Ph. Eur. preservative efficacy standards for the cited categories of preparations.\n(§2) Relative to fungi, the USP standards require that the compositions maintain stasis (i.e., no growth) relative to the population of the initial inoculum over the entire 28 day test period. A category 1A product is an injection, or other parenteral including emulsions, otic, sterile nasal products and ophthalmic products made with aqueous bases or vehicles.\n(§3) The margin of error in calculating microorganism populations is generally accepted to be +/−0.5 logs. Accordingly, the term “stasis”, as utilized herein relative to the above-discussed USP standards, means that the initial population cannot increase by more than 0.5 log orders, relative to the initial population.\n(§4) As cited by Table 1, the Ph. […] Regarding fungi, the Ph."}, "[2]": {"conditions": "cited from earlier work"}, "[3]": {"system": "Candida albicans ATCC 10231", "experiment": "Antimicrobial preservative effectiveness organism challenge test (USP 24 / Ph. Eur. 5.0)", "type": "cell-based", "method": "as §1, §2, §3, §4"}, "[4]": {"system": "Staphylococcus aureus ATCC 6538", "experiment": "Antimicrobial preservative effectiveness organism challenge test (USP 24 / Ph. Eur. 5.0)", "type": "cell-based", "conditions": "S. aureus, pH 7.5", "method": "as §1, §2, §3, §4"}, "[5]": {"system": "Escherichia coli ATCC 8739", "experiment": "Antimicrobial preservative effectiveness organism challenge test (USP 24 / Ph. Eur. 5.0)", "type": "cell-based", "conditions": "E. coli, 0.05 w/v % in Table 2 formulation, pH 7.5", "method": "as §1, §2, §3, §4"}, "[6]": {"system": "Aspergillus niger ATCC 16404", "experiment": "Antimicrobial preservative effectiveness organism challenge test (USP 24 / Ph. Eur. 5.0)", "type": "cell-based", "conditions": "A. niger, 7 days; 0.05 w/v % in Table 2 formulation, pH 7.5", "method": "as §1, §2, §3, §4"}, "[7]": {"system": "Pseudomonas aeruginosa ATCC 9027", "experiment": "Antimicrobial preservative effectiveness organism challenge test (USP 24 / Ph. Eur. 5.0)", "type": "cell-based", "conditions": "P. aeruginosa, 0.05 w/v % in Table 2 formulation, pH 7.5", "method": "as §1, §2, §3, §4"}}, "note": "Entries after “also recorded” stand apart in the source; their conditions may differ.", "data": [{"smiles": "CCCCCCCCN1CCCC1=O", "note": "[N-Octyl-2-Pyrrolidone, N-octyl-2-pyrrolidone]", "values": [{"measurement": "kill of both gram-negative and gram-positive bacteria", "setting": "[1]; 0.05% composition, in six hours", "value": "essentially complete kill"}, {"measurement": "meeting European Pharmacopoeia 5.0 (Ph. Eur. B) standards as sole preservative", "setting": "[1]", "value": "provided sufficient preservation to comply; also recorded: effective as a sole preservative"}, {"measurement": "meeting United States Pharmacopoeia 24 standards as sole preservative", "setting": "[1]; without any other preservative or preservative aid, isotonic pH 7.5 formulation", "value": "provided sufficient preservation to comply"}, {"measurement": "soluble in water up to", "setting": "[2]", "value": "up to 0.124%"}, {"measurement": "kill of Candida albicans", "setting": "[3]; 0.05% composition, in 7 days", "value": "essentially complete kill"}, {"measurement": "Log Order Reductions", "setting": "[3]; C. albicans, 7 days, 0.05 w/v % in Table 2 formulation, pH 7.5", "value": 4.8, "unit": "log order"}, {"measurement": "Log Order Reductions", "setting": "[4]; 6 hours, 0.05 w/v % in Table 2 formulation (propylene glycol 1.8, phosphate)", "value": 4.9, "unit": "log order"}, {"measurement": "Log Order Reductions", "setting": "[4]; 24 hours, 0.05 w/v % in Table 2 formulation", "value": 4.9, "unit": "log order"}, {"measurement": "Log Order Reductions", "setting": "[4]; 7 days, 0.05 w/v % in Table 2 formulation", "value": 4.9, "unit": "log order"}, {"measurement": "Log Order Reductions", "setting": "[5]; 6 hours", "value": 5.0, "unit": "log order"}, {"measurement": "Log Order Reductions", "setting": "[5]; 24 hours", "value": 5.0, "unit": "log order"}, {"measurement": "Log Order Reductions", "setting": "[5]; 7 days", "value": 5.0, "unit": "log order"}, {"measurement": "Log Order Reductions", "setting": "[6]", "value": 0.7, "unit": "log order"}, {"measurement": "Log Order Reductions", "setting": "[7]; 6 hours", "value": 4.9, "unit": "log order"}, {"measurement": "Log Order Reductions", "setting": "[7]; 24 hours", "value": 4.9, "unit": "log order"}, {"measurement": "Log Order Reductions", "setting": "[7]; 7 days", "value": 4.9, "unit": "log order"}]}, {"smiles": "CCCCCCCCCCCCN1CCCC1=O", "note": "[N-dodecyl-2-pyrrolidone]", "values": [{"measurement": "meeting European Pharmacopoeia 5.0 (Ph. Eur. B) standards as sole preservative", "setting": "[1]", "value": "requires a second anti-microbial agent; also recorded: insufficient as a sole agent for preservation"}, {"measurement": "solubility limited in aqueous solutions to", "setting": "[2]; aqueous solutions, unless enhanced by another surfactant", "value": "≤ 0.002", "unit": "%"}, {"measurement": "soluble in water up to", "setting": "[2]", "value": "up to 0.002%"}]}]}
